Legend:
[1] = tested on: TXA2 synthetase; assay: Inhibitory effect on blood thromboxane A2 (TXA2) production in rats; assay type: in vivo, Male Sprague-Dawley rats; settings: 10 mg/kg oral, 2 hours after administration; serum TXB2 by radioimmunoassay, versus control
Procedure: Male Sprague-Dawley rats aged 7 to 8 weeks were used in groups of 5 individuals. Rats in the dosing group received by oral administration of 2 ml/kg of an aqueous suspension of 10 mg/kg of the test compound prepared with a small amount of gum arabic. To rats in the control group, a suspension of gum arabic only was similarly administered. Two hours after administration, each rat was anesthetized with pentobarbital sodium (50 mg/kg, intraperitoneal) and 1 ml of blood was taken from the abdominal aorta. The blood was allowed to stand at 25° C. for 90 minutes, after which it was centrifuged at 15,000 rpm for 2 minutes to separate the serum. The serum thromboxane B2 (TXB2) which was a stable metabolite of TXA2 produced in the blood during the standing procedure was determined by radioimmunoassay (Shibouta et al., Biochemical Pharmacol. 28, 3601, 1979). The percent inhibition of TXA2 synthetase was calculated from the difference in TXB2 production between the control and dosing groups.

[2] = Oral toxicity; assay type: in vivo; settings: 1000 mg/kg/day, five rats, 14 days
Source text: Moreover, the compounds of the invention are very low in toxicity in rats, dogs and so forth and characterized by broad margin between the toxic dose and the therapeutically effective dose. […] Furthermore, the compounds (I) of the invention produced long-lasting pharmacological effects in vivo, so that their TXA2 synthetase inhibiting activity is expected to be retained stably for a prolonged period of time. Accordingly, the compounds provided by the invention are used in low doses in mammals, including humans, for the prevention or treatment of thrombosis due to TXA2 -induced platelet aggregation, ischemic diseases due to vasospasm in heart, brain, periphery and circulatory system (e.g. myocardial infarction, stroke, renal infarction, pulmonary infarction, infarction at some other site, digestive tract ulcer) and diseases due to imbalance of the ratio of TXA2 /PGI2, with low incidence of adverse effects resulting from long-term continuous use thereof. They are administered orally in the form of tablets, capsules, powders or granules, for instance, or parenterally in the form of injections or pellets. Generally, they are used in a daily oral dose of 20-200 mg per adult human or a daily parenteral dose of 10-100 mg per adult human, respectively in 1-3 divided doses.

For `CCCCC/C=C(\c1ccccc1)c1cccnc1` [Id-5, (E)-1-phenyl-1-(3-pyridyl)-1-heptene], the “% inhibition of TXA2 synthetase” value [1] was 73%.
In the case of `O=C(O)CCCCCCCCC/C=C(\c1ccccc1)c1cccnc1` [Id-9, (E)-12-phenyl-12-(3-pyridyl)-11-dodecenoic acid], the “% inhibition of TXA2 synthetase” value [1] is reported as 90%.
In the case of `OCCCCC/C=C(\c1ccccc1)c1cccnc1` [Id-14, (E)-7-phenyl-7-(3-pyridyl)-6-hepten-1-ol], the “% inhibition of TXA2 synthetase” value [1] is reported as 92% and the Deaths [2] is reported as “no rat was dead for 14 days”.
For `OCCCCC/C=C(/c1ccccc1)c1cccnc1` [Id-15], the “% inhibition of TXA2 synthetase” value [1] was 87%.
For `OCCCCC/C=C(\c1cccnc1)c1cccs1` [Id-17, (E)-7-(3-pyridyl)-7-(2-thienyl)-6-hepten-1-ol], the “% inhibition of TXA2 synthetase” value [1] was 95%.
With `OCCCCC/C=C(\c1cccnc1)c1cccs1` [Id-18] the “% inhibition of TXA2 synthetase” value [1] was 72%.
With `CC(=O)OCCCCC/C=C(\c1ccccc1)c1cccnc1` [Id-19, 1-acetoxy-(E)-7-phenyl-7-(3-pyridyl)-6-heptene] the “% inhibition of TXA2 synthetase” value [1] was 94%.
In the case of `O=COCCCCC/C=C(\c1ccccc1)c1cccnc1` [Id-20, 1-formyloxy-(E)-7-phenyl-7-(3-pyridyl)-6-heptene], the “% inhibition of TXA2 synthetase” value [1] is reported as 87%.
In the case of `CNC(=O)OCCCCC/C=C(\c1ccccc1)c1cccnc1` [Id-24, 1-methylaminocarbonyloxy-(E)-7-phenyl-7-(3-pyridyl)-6-heptene], the “% inhibition of TXA2 synthetase” value [1] is reported as 90%.
For `CCCCNC(=O)OCCCCC/C=C(\c1ccccc1)c1cccnc1` [Id-25, 1-(n-butyl)aminocarbonyloxy-(E)-7-phenyl-7-(3-pyridyl)-6-heptene], the “% inhibition of TXA2 synthetase” value [1] was 83%.
With `O=C(Nc1ccccc1)OCCCCC/C=C(\c1ccccc1)c1cccnc1` [Id-27, 1-phenylaminocarbonyloxy-(E)-7-phenyl-7-(3-pyridyl)-6-heptene] the “% inhibition of TXA2 synthetase” value [1] was 87%.
With `S=C(Nc1ccccc1)OCCCCC/C=C(\c1ccccc1)c1cccnc1` [Id-28, 1-phenylaminothiocarbonyloxy-(E)-7-phenyl-7-(3-pyridyl)-6-heptene] the “% inhibition of TXA2 synthetase” value [1] was 79%.
For `Cc1ccc(S(=O)(=O)NC(=O)OCCCCC/C=C(\c2ccccc2)c2cccnc2)cc1` [Id-29, 1-(p-toluenesulfonyl)aminocarbonyloxy-(E)-7-phenyl-7-(3-pyridyl)-6-heptene], the “% inhibition of TXA2 synthetase” value [1] was 94%.
In the case of `O=[N+]([O-])OCCCCC/C=C(\c1ccccc1)c1cccnc1` [Id-32, 1-nitroxy-(E)-7-phenyl-7-(3-pyridyl)-6-heptene], the “% inhibition of TXA2 synthetase” value [1] is reported as 94%.
For `COCCCCC/C=C(\c1ccccc1)c1cccnc1` [Id-37, (E)-1-methoxy-7-phenyl-7-(3-pyridyl)-6-heptene], the “% inhibition of TXA2 synthetase” value [1] was 92%.
In the case of `NC(=O)CCCC/C=C(\c1ccccc1)c1cccnc1` [Id-43, (E)-7-phenyl-7-(3-pyridyl)-6-heptenamide], the “% inhibition of TXA2 synthetase” value [1] is reported as 93%.
In the case of `O=C(CCCC/C=C(\c1ccccc1)c1cccnc1)Nc1ccccc1` [Id-44, N-phenylamide of (E)-7-phenyl-7-(3-pyridyl)-6-heptenoic acid], the “% inhibition of TXA2 synthetase” value [1] is reported as 94%.
In the case of `CC(C)(C)[Si](C)(C)OCCCCC/C=C(\c1ccccc1)c1cccnc1` [Id-48, dimethyl-t-butylsilyl ether of (E)-7-phenyl-7-(3-pyridyl)-6-hepten-1-ol], the “% inhibition of TXA2 synthetase” value [1] is reported as 91%.
With `O=C(O)CCCC/C=C(\c1ccccc1)c1ccc[n+]([O-])c1` [Ie-2, (E)-7-phenyl-7-(1-oxide-3-pyridyl)-6-heptenoic acid] the “% inhibition of TXA2 synthetase” value [1] was 85%.
In the case of `O=C(O)CCCC/C=C(/c1ccccc1)c1ccc[n+]([O-])c1` [Ie-3], the “% inhibition of TXA2 synthetase” value [1] is reported as 70%.
With `O=C(O)CCCCCCCCC/C=C(\c1ccccc1)c1ccc[n+]([O-])c1` [Ie-4] the “% inhibition of TXA2 synthetase” value [1] was 85%.
For `O=C(O)CCCC/C=C(/c1ccc[n+]([O-])c1)c1cccs1` [Ie-5], the “% inhibition of TXA2 synthetase” value [1] was 90%.
In the case of `COC(=O)CCCC/C=C(\c1ccccc1)c1ccc[n+]([O-])c1` [Ie-6], the “% inhibition of TXA2 synthetase” value [1] is reported as 80%.
In the case of `[O-][n+]1cccc(/C(=C/CCCCCO)c2ccccc2)c1` [Ie-7, (E)-7-phenyl-7-(1-oxide-3-pyridyl)-6-hepten-1-ol], the “% inhibition of TXA2 synthetase” value [1] is reported as 80%.
In the case of `O=C(Nc1ccccc1)OCCCCC/C=C(\c1ccccc1)c1ccc[n+]([O-])c1` [Ie-8], the “% inhibition of TXA2 synthetase” value [1] is reported as 80%.
For `CCCCC/C=C(\c1ccccc1)c1ccc[n+]([O-])c1` [Ie-9], the “% inhibition of TXA2 synthetase” value [1] was 68%.
